Publication PMC7202080 (Cell calcium, 2020)

Biological target: TRPM7 (Mus musculus, UniProt Q923J1)
Assay: Fura-2 Ca2+ imaging in LS8 cells
Assay type: cell-based

TRPM7, sequence (Q923J1 whole entry): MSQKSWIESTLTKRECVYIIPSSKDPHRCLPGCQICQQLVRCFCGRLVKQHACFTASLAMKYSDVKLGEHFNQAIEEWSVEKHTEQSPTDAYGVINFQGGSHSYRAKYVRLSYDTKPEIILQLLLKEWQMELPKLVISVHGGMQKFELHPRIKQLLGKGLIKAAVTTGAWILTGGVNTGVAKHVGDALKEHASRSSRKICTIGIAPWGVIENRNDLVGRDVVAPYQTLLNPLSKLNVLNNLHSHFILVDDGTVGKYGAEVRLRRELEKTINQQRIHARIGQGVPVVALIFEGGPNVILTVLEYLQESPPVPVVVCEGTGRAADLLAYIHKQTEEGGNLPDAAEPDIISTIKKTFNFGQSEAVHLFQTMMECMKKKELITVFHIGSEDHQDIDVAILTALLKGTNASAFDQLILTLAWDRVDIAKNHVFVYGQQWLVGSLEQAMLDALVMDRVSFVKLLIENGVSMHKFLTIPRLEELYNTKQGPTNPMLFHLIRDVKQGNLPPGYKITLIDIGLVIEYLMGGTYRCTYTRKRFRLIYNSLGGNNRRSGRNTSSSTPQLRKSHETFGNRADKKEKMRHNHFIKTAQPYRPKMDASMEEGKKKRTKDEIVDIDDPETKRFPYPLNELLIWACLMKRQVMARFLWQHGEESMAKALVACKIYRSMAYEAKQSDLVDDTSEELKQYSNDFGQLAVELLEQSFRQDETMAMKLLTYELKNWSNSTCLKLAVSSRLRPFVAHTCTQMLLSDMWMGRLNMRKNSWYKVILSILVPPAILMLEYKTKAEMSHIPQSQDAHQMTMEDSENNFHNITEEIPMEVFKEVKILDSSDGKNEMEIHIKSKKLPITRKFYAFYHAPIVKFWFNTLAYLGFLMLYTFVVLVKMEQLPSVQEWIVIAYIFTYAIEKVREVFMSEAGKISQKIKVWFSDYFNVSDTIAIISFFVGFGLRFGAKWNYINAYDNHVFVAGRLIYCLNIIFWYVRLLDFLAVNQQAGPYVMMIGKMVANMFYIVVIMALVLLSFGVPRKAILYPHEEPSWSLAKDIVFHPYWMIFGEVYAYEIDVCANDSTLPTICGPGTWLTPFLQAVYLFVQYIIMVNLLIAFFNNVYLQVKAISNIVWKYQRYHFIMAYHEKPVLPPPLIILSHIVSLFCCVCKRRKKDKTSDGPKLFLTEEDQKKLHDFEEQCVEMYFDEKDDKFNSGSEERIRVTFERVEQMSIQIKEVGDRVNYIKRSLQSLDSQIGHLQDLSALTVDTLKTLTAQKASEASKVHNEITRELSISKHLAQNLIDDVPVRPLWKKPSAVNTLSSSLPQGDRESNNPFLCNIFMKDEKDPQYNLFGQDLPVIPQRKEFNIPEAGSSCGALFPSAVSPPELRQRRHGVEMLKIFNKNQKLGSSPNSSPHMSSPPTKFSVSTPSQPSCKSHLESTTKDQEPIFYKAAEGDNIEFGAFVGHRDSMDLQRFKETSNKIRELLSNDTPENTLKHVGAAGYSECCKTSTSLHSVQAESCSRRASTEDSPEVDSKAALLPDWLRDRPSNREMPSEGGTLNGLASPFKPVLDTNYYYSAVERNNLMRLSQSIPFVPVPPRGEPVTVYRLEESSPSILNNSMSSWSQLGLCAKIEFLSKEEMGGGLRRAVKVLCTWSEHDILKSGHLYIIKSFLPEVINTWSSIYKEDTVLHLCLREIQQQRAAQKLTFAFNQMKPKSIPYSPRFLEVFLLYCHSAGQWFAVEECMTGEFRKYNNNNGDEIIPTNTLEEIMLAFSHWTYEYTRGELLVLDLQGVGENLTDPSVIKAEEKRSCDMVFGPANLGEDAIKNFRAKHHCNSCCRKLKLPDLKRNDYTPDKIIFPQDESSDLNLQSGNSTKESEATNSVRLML

With Oc1ccc2c3c1O[C@H]1c4oc5ccccc5c4C[C@@]4(O)[C@@H](C2)N(CC2CC2)CC[C@]314 [NAL, naltriben] the EC50 was ~45 µM.
